Experimental data published in patent US20100016402A1, “UNIT DOSE FORMULATIONS OF KETOROLAC FOR INTRANASAL ADMINISTRATION” (Roxro Pharma, Inc., priority 2008, published 2010).
Where a name gives a salt, the structure may show the parent alone.

How the values were obtained:
[1] = solubility in water at different pH
[2] = solubility of local anesthetic in ketorolac solution; format: physicochemical; conditions: 15% ketorolac, not re-dispersed by heating or adjusting the pH
[3] = degradation of ketorolac in solution; format: physicochemical; conditions: 1-keto analog proportional to amount of ketorolac and available oxygen
Source text: The amount of 1-keto analog produced is generally proportional to the amount of ketorolac in solution and available oxygen (e.g., in the head space of the container, such as those described in U.S. patent application Ser. No. 12/404,250, filed on Mar. 13, 2009, entitled, “Device for Intranasal Administration,”).

Structure (SMILES): CCOC(=O)c1ccc(N)cc1 [benzocaine hydrochloride]
- pH of the solution in water [1]: about 1.5
- solubility in water ([1]; water, pH not adjusted): soluble in water

Structure (SMILES): CCOC(=O)c1ccc(N)cc1 [benzocaine]
- precipitation in the presence of ketorolac ([2]; 6% benzocaine solution): precipitation was observed
- precipitation in the presence of ketorolac ([2]; 10% benzocaine solution): precipitation was observed
- solubility ([1]; low pH): soluble
- solubility in water ([1]; physiological pH ranges of 4.5 to 7.2): low solubility

Structure (SMILES): O=C(c1ccccc1)c1ccc2n1CCC2C(=O)O (stereo not shown) [ketorolac, 5-benzoyl-2,3-dihydro-1H-pyrrolizine-1-carboxylic acid]
- stability in solution (degradation products) [3]: produces several degradation products
